{"source": "patent EP4252752A1", "about": "“DRUG FOR TREATMENT OR PREVENTION OF CEREBRAL HEMORRHAGE, AND METHOD FOR TREATMENT OR PREVENTION OF CEREBRAL HEMORRHAGE USING SAID DRUG” (Biogen MA Inc., priority 2020, dated 2022)", "assay_type_in_all_cases": "in vivo, SD rats", "key": {"[1]": {"test_system": "animal model of cerebral hemorrhage", "assay": "Hematoma volume in brain sections, collagenase-induced intracerebral hemorrhage (Example 1)", "details": "2 mg/mL solution of SMTP-7 injected into the brain at 0.2 µL/min over 10 minutes, 24 hours after collagenase injection; brain sections on day 7; FIG. 1A-1C, FIG. 2", "protocol": "(§1) Eight to 10 week old male SD rats (250 to 300 g body weight) were kept under a 12-hour light/dark cycle and a temperature of 22°C ± 1°C. The rats were raised in plastic cages and given free access to water and feed. The number of rats used in each experiment was n = 4 unless otherwise indicated. Moreover, a component other than those listed in the injection solution was physiological saline.\n(§2) The rats were anesthetized with isoflurane (1.5% isoflurane + 66% NO + 33% O2) and then injected with collagenase from clostridium histolyticum (type IV, made by Sigma-Aldrich) at a concentration of 0.25 U/µL at a position 3 mm lateral from the center of the brain, at bregma level in the anteroposterior direction and 5 mm behind the stria vascularis using a syringe to inject for 5 minutes at a rate of 0.2 µL/min, then the syringe needle was held at that position for 10 minutes, and then slowly withdrawn over another 10 minutes (0.5 mm per minute). Note that care was taken to prevent backflow during injection. In the following description, the day of this collagenase injection is referred to as day 0. This collagenase injection causes an intracerebral hemorrhage and the formation of a hematoma. […]\nMoreover, the ratio of volume of hematoma to the volume of the entire brain was also measured using Imaged. […]"}, "[2]": {"test_system": "animal model of cerebral hemorrhage", "assay": "Evans blue staining of brain sections, collagenase-induced intracerebral hemorrhage (Example 2)", "details": "SMTP-7 test solution as in example 1; 2% Evans blue into tail vein 1 hour before sacrifice, day 7; FIG. 3A-3D, 4, 5", "protocol": "as §1\nas §2, with “minute).” for “minute). Note that care was taken to prevent backflow during injection. In the following description, the day of this collagenase injection is referred to as day 0. This collagenase injection causes an intracerebral hemorrhage and the formation of a hematoma.”\nThe same experiment as in example 1 was performed again. […] Micrographs of whole brains and 3 mm thick sections are illustrated in FIG. 3A to FIG. 3D, and the total area (mm^2) of Evans blue-stained region and staining density determined from the sections using Imaged are shown in FIG. 4 and FIG. 5. […] In FIG. 5, the vertical axis represents the concentration value of Evans blue expressed as absorbance at a wavelength of 620 nm."}, "[3]": {"test_system": "animal model of cerebral hemorrhage", "assay": "Small animal MRI (T2-weighted) of hematoma and edema, collagenase-induced intracerebral hemorrhage (Example 3)", "details": "SMTP-7 test solution as in example 1", "protocol": "as §1\nas §2, with “0.” for “0. This collagenase injection causes an intracerebral hemorrhage and the formation of a hematoma.”\nCollagenase injection and test solution injection were performed as in example 1, and rat brains were measured by small animal MRI on days 1 and 7 after collagenase injection (PharmaScan made by Bruker BioSpin). […] The volume of hematomas was measured based on these MRI measurements using Imaged. […]"}, "[4]": {"test_system": "animal model of cerebral hemorrhage", "assay": "Barnes maze test, collagenase-induced intracerebral hemorrhage (Example 4)", "details": "SMTP-7 test solution as in example 1; day 7 to day 10 after collagenase injection; FIG. 11-15", "protocol": "as §1\nas §2, with “0.” for “0. This collagenase injection causes an intracerebral hemorrhage and the formation of a hematoma.”\nCollagenase injection and test solution injection were performed as in example 1, and a Barnes maze test (Barnes maze test) was performed on day 7 after collagenase injection. […] The time it took to reach the escape box and the number of holes where the rats incorrectly stayed at were evaluated. […]"}, "[5]": {"test_system": "animal model of cerebral hemorrhage", "assay": "LAN cable walking test of motor function, collagenase-induced intracerebral hemorrhage (Example 5)", "details": "SMTP-7 test solution as in example 1; observed for 60 seconds on LAN cable; FIG. 16", "protocol": "as §1, §2\nCollagenase injection and test solution injection were performed as in example 1, and the motor function of rats was evaluated by having the rats walk on a local area network (LAN) cable. […]"}, "[6]": {"test_system": "animal model of cerebral hemorrhage", "assay": "Hematoxylin-eosin (HE) staining of brain sections, hematoma area (Example 6)", "details": "SMTP-7 test solution as in example 1; sections on day 7 after collagenase injection; FIG. 17-18", "protocol": "as §1, §2"}, "[7]": {"test_system": "animal model of cerebral hemorrhage", "assay": "Luxol fast blue and Cresyl violet double staining, myelin density in white matter (Example 7)", "details": "SMTP-7 test solution as in example 1; ipsilateral, contralateral and central sites; day 7; FIG. 19-21", "protocol": "as §1, §2"}, "[8]": {"test_system": "cleaved caspase-3 (Asp175)", "assay": "Antibody staining of brain sections for cleaved caspase-3 (Example 8)", "details": "SMTP-7 test solution as in example 1, cerebral cortex, day 7, FIG. 22-24", "protocol": "as §1, §2"}, "[9]": {"test_system": "GFAP", "assay": "Antibody staining of brain sections with anti-GFAP antibodies (Example 9)", "details": "SMTP-7 test solution as in example 1; day 7; FIG. 25-27", "protocol": "as §1, §2"}, "[10]": {"test_system": "Iba-1", "assay": "Antibody staining of brain sections with anti-Iba-1 antibodies (Example 10)", "details": "SMTP-7 test solution as in example 1; day 7; FIG. 28-30", "protocol": "as §1, §2"}}, "data": [{"smiles": "CC(C)=CCC/C(C)=C/CC[C@]1(C)Oc2c(c(O)cc3c2CN(CCC[C@@H](C(=O)O)N2Cc4c(cc(O)c5c4O[C@@](C)(CC/C=C(\\C)CCC=C(C)C)[C@@H](O)C5)C2=O)C3=O)C[C@@H]1O", "note": "[SMTP-7]", "values": [{"measurement": "ratio of volume of hematoma to the volume of the entire brain", "setting": "[1]", "result": "marked reduction in hematoma"}, {"measurement": "hematoma: total area of Evans blue-stained region and staining density", "setting": "[2]", "result": "marked reduction in hematoma"}, {"measurement": "volume ratio of hematoma in the T2-weighted MRI image", "setting": "[3]; MRI on days 1 and 7 after collagenase injection, FIG. 6-8", "result": "marked reduction in both hematoma and edema"}, {"measurement": "ratio of cerebral edema volume in brain volume (MRI)", "setting": "[3]; day 7 after collagenase injection, FIG. 9-10", "result": "marked reduction in both hematoma and edema"}, {"measurement": "learning ability: time required to reach the escape box and number of incorrect holes", "setting": "[4]", "result": "marked improvement in learning ability"}, {"measurement": "motor ability: total score (0 to 10) in LAN cable walking test", "setting": "[5]", "result": "marked improvement in motor ability"}, {"measurement": "area of the hematoma region identified by HE staining", "setting": "[6]", "result": "marked reduction in hematoma"}, {"measurement": "white matter lesions (demyelination): myelin density in white matter", "setting": "[7]", "result": "marked suppression of hematoma lesions"}, {"measurement": "number of cells expressing caspase-3 (immunopositive cells per 100 µm^2 of ROI), contralateral", "setting": "[8]; contralateral to collagenase injection", "result": "markedly reduced"}, {"measurement": "number of cells expressing caspase-3 (immunopositive cells per 100 µm^2 of ROI), ipsilateral", "setting": "[8]; ipsilateral to collagenase injection", "result": "markedly reduced"}, {"measurement": "neuron damage: immunostaining using antibodies against GFAP, number of immunopositive cells", "setting": "[9]", "result": "significantly suppressed"}, {"measurement": "inflammation: immunostaining using antibodies against Iba-1, number of immunopositive cells", "setting": "[10]", "result": "significantly suppressed"}]}]}
